Assays:
[1] = The ability of compound to inhibit [35S][…] binding in guinea pig caudate stimulated by SNC80 (Opioid receptor delta 1) antagonist
[2] = The ability of compound to inhibit [35S][…] binding in guinea pig caudate stimulated by SNC80

SMILES | Ki [1] [nM] | Ki [2] [nM]
CCO[C@@]12Cc3c(oc4ccccc34)[C@@H]3Oc4c(O)ccc5c4[C@@]31CCN(CC1CC1)[C@@H]2C5 | 0.88 | 
C=CCN1CC[C@]23c4c5ccc(O)c4O[C@H]2c2[nH]c4ccccc4c2C[C@@]3(OCC)[C@H]1C5 |  | 1
CCO[C@@]12Cc3c([nH]c4ccccc34)[C@]3(C)Oc4c(O)ccc5c4C31CCN(CC1CC1)C2C5 (stereo partly drawn) [22-cyclopropylmethyl-2-ethoxy-13-methyl-(2S,13R)-14-oxa-11,22-diazaheptacyclo[13.9.1.01,13.02,21.04,12.05,10.019,25]pentacosa-4(12),5(10),6,8,15,17,19(25)-heptaen-16-ol] | 0.96 | 

— BindingDB's records for doi:10.1021/jm020940p (University of Innsbruck, 2002)
